Several values for one entry are separate records, joined by “and”; a condition that tells them apart may be missing. Equal entries are not always repeated. Inconclusive results and toxic doses are left out. No stated cut-off is given here; in the data, active means T/C of 150% or more; inactive means T/C below 125%. Square brackets hold non-standard residues; d marks the D form. Peptide text beside a SMILES is read from it. * marks the point of attachment. Cbz = O=C(OCc1ccccc1)*; OBn = c1ccc(CO*)cc1; Sar = CNCC(=O)O
System: L1210 leukemia ip in BDF1 mice, survival T/C
Assay: NCI In Vivo Anticancer Drug Screen. Data for tumor model L1210 Leukemia (intraperitoneal) in B6D2F1 (BDF1) mice
Details: endpoint: mean survival time, higher = longer survival
Summary of the method: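 Mice bearing the transplanted tumor received compound or vehicle. Survival of the treated group was divided by that of the vehicle-treated control group to give the ratio.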

[1] = dose: 100.0 mg/kg/injection, schedule: Q01DX001 (ip), vehicle: saline
[2] = dose: 200.0 mg/kg/injection, schedule: Q01DX001 (ip), vehicle: saline
[3] = dose: 400.0 mg/kg/injection, schedule: Q01DX001 (ip), vehicle: saline
[4] = dose: 25.0 mg/kg/injection, schedule: Q04DX003 (ip), vehicle: saline
[5] = dose: 50.0 mg/kg/injection, schedule: Q04DX003 (ip), vehicle: saline
[6] = dose: 100.0 mg/kg/injection, schedule: Q04DX003 (ip), vehicle: saline with Tween-80
[7] = dose: 200.0 mg/kg/injection, schedule: Q04DX003 (ip), vehicle: saline with Tween-80
[8] = dose: 400.0 mg/kg/injection, schedule: Q04DX003 (ip), vehicle: saline with Tween-80
[9] = dose: 200.0 mg/kg/injection, schedule: Q01DX001 (ip), vehicle: carboxymethylcellulose (CMC)
[10] = dose: 50.0 mg/kg/injection, schedule: Q04DX002 (ip), vehicle: Klucel (hydroxypropylcellulose) (HPC)
[11] = dose: 100.0 mg/kg/injection, schedule: Q04DX002 (ip), vehicle: Klucel (hydroxypropylcellulose) (HPC)
[12] = dose: 100.0 mg/kg/injection, schedule: Q01DX009 (ip), vehicle: Klucel (hydroxypropylcellulose) (HPC)
[13] = dose: 200.0 mg/kg/injection, schedule: Q01DX009 (ip), vehicle: Klucel (hydroxypropylcellulose) (HPC)
[14] = dose: 400.0 mg/kg/injection, schedule: Q01DX009 (ip), vehicle: Klucel (hydroxypropylcellulose) (HPC)
[15] = dose: 25.0 mg/kg/injection, schedule: Q01DX009 (ip), vehicle: saline
[16] = dose: 50.0 mg/kg/injection, schedule: Q01DX009 (ip), vehicle: saline
[17] = dose: 100.0 mg/kg/injection, schedule: Q04DX003 (ip), vehicle: saline
[18] = dose: 100.0 mg/kg/injection, schedule: Q01DX009 (ip), vehicle: saline with Tween-80
[19] = dose: 100.0 mg/kg/injection, schedule: Q01DX009 (ip), vehicle: other
[20] = dose: 200.0 mg/kg/injection, schedule: Q01DX009 (ip), vehicle: other
[21] = dose: 200.0 mg/kg/injection, schedule: Q04DX003 (ip), vehicle: saline
[22] = dose: 400.0 mg/kg/injection, schedule: Q04DX003 (ip), vehicle: saline

Measured: T/C

CN(C)NP(=O)(c1ccccc1)c1ccccc1
inactive: [1] 98 % of control | [2] 95 % of control | [3] 97 % of control

C[N+](C)(C)CCC(=O)c1ccccc1
inactive: dose: 12.5 mg/kg/injection, schedule: Q04DX003 (ip), vehicle: saline 97 % of control | [4] 100 % of control | [5] 94 % of control | dose: 75.0 mg/kg/injection, schedule: Q01DX001 (ip), vehicle: saline 102 % of control

C[N+]12C(=O)CC3OCC=C4C[N+]5(C)CCC6(c7ccccc71)C2C3C4CC65O (stereo not drawn)
inactive: dose: 9.5 mg/kg/injection, schedule: Q01DX001 (ip), vehicle: other 92 % of control | dose: 19.0 mg/kg/injection, schedule: Q01DX001 (ip), vehicle: other 101 % of control

CC(C)CCC(C)O[Si](C)c1ccccc1 (stereo not drawn)
inactive: [6] 97 % of control | [7] 99 % of control | [8] 101 % of control

CCOC(=O)C(N)CS (stereo not drawn)
inactive: [1] 106 % of control | [2] 97 % of control | [3] 101 % of control

CCCCOC(c1ccccc1)N1CCCCC1 (stereo not drawn)
inactive: [9] 95 % of control

Oc1cc(Br)c(O)c(Br)c1
inactive: dose: 25.0 mg/kg/injection, schedule: Q04DX002 (ip), vehicle: Klucel (hydroxypropylcellulose) (HPC) 109 % of control | [10] 102 % of control | [11] 97 % of control | dose: 400.0 mg/kg/injection, schedule: Q04DX002 (ip), vehicle: Klucel (hydroxypropylcellulose) (HPC) 90 % of control

O=C(O)CSc1nc2ccccc2[nH]1
inactive: [6] 100 % of control | [7] 96 % of control | [8] 88 % of control

COc1cc2oc(C)c(C)c2cc1/C=C\[N+](=O)[O-]
inactive: [10] 96 % of control | [12] 93 % of control | [11] 93 % of control | [13] 98 % of control | dose: 200.0 mg/kg/injection, schedule: Q04DX002 (ip), vehicle: Klucel (hydroxypropylcellulose) (HPC) 96 % of control | [14] 100 % of control

O=C(NOS(=O)(=O)O)c1ccccc1
inactive: dose: 25.0 mg/kg/injection, schedule: Q01DX001 (ip), vehicle: saline 94 % of control | [15] 110 % of control | [4] 98 % of control | dose: 50.0 mg/kg/injection, schedule: Q01DX001 (ip), vehicle: saline 99 % of control | [16] 97 % of control | [5] 100 % of control | [1] 100 % of control and 104 % of control | [17] 100 % of control

Nc1ncnc(Nc2ccc([N+](=O)[O-])cc2)c1[N+](=O)[O-]
inactive: [12] 97 % of control | [13] 92 % of control | [14] 96 % of control

CCC(=O)CCC1CCCCC1
inactive: [1] 94 % of control | [2] 100 % of control | [3] 91 % of control

CC1(c2cccs2)C(=O)NC(=O)N1C(=O)CCl (stereo not drawn)
inactive: [18] 109 % of control | [6] 103 % of control | dose: 200.0 mg/kg/injection, schedule: Q01DX009 (ip), vehicle: saline with Tween-80 106 % of control | [7] 99 % of control

CCCCOC(=O)C(C)OC(=O)CCC (stereo not drawn)
inactive: [12] 102 % of control | dose: 100.0 mg/kg/injection, schedule: Q04DX003 (ip), vehicle: Klucel (hydroxypropylcellulose) (HPC) 99 % of control | [13] 90 % of control | dose: 200.0 mg/kg/injection, schedule: Q04DX003 (ip), vehicle: Klucel (hydroxypropylcellulose) (HPC) 107 % of control | [14] 102 % of control | dose: 400.0 mg/kg/injection, schedule: Q04DX003 (ip), vehicle: Klucel (hydroxypropylcellulose) (HPC) 102 % of control

Cc1ccc(S(=O)(=O)Oc2c(Cl)c(Cl)c(Cl)c(Cl)c2Cl)cc1
inactive: dose: 100.0 mg/kg/injection, schedule: Q01DX001 (ip), vehicle: other 94 % of control | [19] 92 % of control | dose: 100.0 mg/kg/injection, schedule: Q04DX003 (ip), vehicle: other 92 % of control | dose: 200.0 mg/kg/injection, schedule: Q01DX001 (ip), vehicle: other 102 % of control | [20] 86 % of control | dose: 200.0 mg/kg/injection, schedule: Q04DX003 (ip), vehicle: other 93 % of control | dose: 400.0 mg/kg/injection, schedule: Q01DX001 (ip), vehicle: other 88 % of control | dose: 400.0 mg/kg/injection, schedule: Q04DX003 (ip), vehicle: other 90 % of control

CSc1nc(N)cc(Nc2ccc(Cl)[nH]c2=S)n1
inactive: dose: 75.0 mg/kg/injection, schedule: Q01DX001 (ip), vehicle: Klucel (hydroxypropylcellulose) (HPC) 92 % of control | dose: 150.0 mg/kg/injection, schedule: Q01DX001 (ip), vehicle: Klucel (hydroxypropylcellulose) (HPC) 95 % of control | dose: 300.0 mg/kg/injection, schedule: Q01DX001 (ip), vehicle: Klucel (hydroxypropylcellulose) (HPC) 93 % of control

CN=C(NCCCOC)c1ccc(NC(=O)Nc2ccc(NC(=O)Nc3ccc(C(=NC)NCCCOC)cc3)cc2)cc1
inactive: dose: 1.87 mg/kg/injection, schedule: Q01DX Z (ip), vehicle: carboxymethylcellulose (CMC) 107 % of control | dose: 3.75 mg/kg/injection, schedule: Q01DX Z (ip), vehicle: carboxymethylcellulose (CMC) 96 % of control | dose: 7.5 mg/kg/injection, schedule: Q01DX Z (ip), vehicle: carboxymethylcellulose (CMC) 104 % of control | dose: 15.0 mg/kg/injection, schedule: Q01DX Z (ip), vehicle: carboxymethylcellulose (CMC) 102 % of control

CCN(CC)CCC(=O)c1ccccc1
inactive: dose: 12.5 mg/kg/injection, schedule: Q01DX009 (ip), vehicle: saline 100 % of control | [15] 97 % of control | dose: 50.0 mg/kg/injection, schedule: Q01DX009 (ip), vehicle: saline with Tween-80 96 % of control | [16] 97 % of control | [18] 91 % of control

COc1ccc2ncc(CO)cc2c1
inactive: [17] 96 % of control | [21] 98 % of control | [22] 112 % of control

C1CCC(N=C(NC2CCCCC2)OC2CCCCC2)CC1
inactive: dose: 11.1 mg/kg/injection, schedule: Q01DX Z (ip), vehicle: methylcellulose (MC) 97 % of control | dose: 16.6 mg/kg/injection, schedule: Q01DX Z (ip), vehicle: methylcellulose (MC) 89 % of control | dose: 25.0 mg/kg/injection, schedule: Q01DX Z (ip), vehicle: methylcellulose (MC) 101 % of control

CN(CC(=O)OCc1ccccc1)C(=O)CNC(=O)OCc1ccccc1 (Cbz-Gly-[Sar]-OBn)
inactive: [6] 95 % of control | [7] 98 % of control | [8] 98 % of control

CC(C)(C)c1cc(Br)c(O)c(C(=O)O)c1
inactive: [9] 98 % of control

CCCCCCCCCC[P+](=O)CCCCCCCCCC
inactive: dose: 25.0 mg/kg/injection, schedule: Q04DX003 (ip), vehicle: saline with Tween-80 92 % of control | dose: 50.0 mg/kg/injection, schedule: Q04DX003 (ip), vehicle: saline with Tween-80 89 % of control | [7] 89 % of control | [8] 89 % of control

COc1cc(OC)c(Cl)c(OC)c1
inactive: [19] 120 % of control | [17] 101 % of control | [20] 103 % of control | [21] 100 % of control | dose: 400.0 mg/kg/injection, schedule: Q01DX009 (ip), vehicle: other 108 % of control | [22] 101 % of control

CC(C)(C)C(=O)[CH-]C(=O)C(C)(C)C.CC(C)(C)C(=O)[CH-]C(=O)C(C)(C)C.CC(C)(C)C(=O)[CH-]C(=O)C(C)(C)C.CN(C)C=O.[Er+3]
inactive: dose: 100.0 mg/kg/injection, schedule: Q04DX002 (ip), vehicle: saline with Tween-80 105 % of control | dose: 200.0 mg/kg/injection, schedule: Q04DX002 (ip), vehicle: saline with Tween-80 94 % of control | dose: 400.0 mg/kg/injection, schedule: Q04DX002 (ip), vehicle: saline with Tween-80 94 % of control

Cc1ccccc1CC1c2[nH]c3ccccc3c2CCN1C (stereo not drawn)
inactive: dose: 75.0 mg/kg/injection, schedule: Q01DX001 (ip), vehicle: other 92 % of control | dose: 150.0 mg/kg/injection, schedule: Q01DX001 (ip), vehicle: other 86 % of control

Source: PubChem BioAssay AID248 (DTP/NCI, 2004)
